Experimental data as given in patent publication US20260232643A1, “METHODS OF TREATING SOLID TUMORS WITH MITOGEN ACTIVATED PROTEIN KINASE (MAPK) PATHWAY ALTERATIONS” (Jazz Pharmaceuticals Ireland Limited, priority 2023, published 2026).
Positions count from the first letter of the chain named. Several values for one entry are separate records, joined by “and”; a condition that tells them apart may be missing. Identical values can stand only once. Like-named read-outs stand apart in the source and are kept apart here.

Legend:
[1] = molecular target: BRAF V600E (Homo sapiens, UniProt P15056, V600E); test: PanQinase flash plate-based kinase assay
Sequence of BRAF V600E (P15056 whole entry V600E): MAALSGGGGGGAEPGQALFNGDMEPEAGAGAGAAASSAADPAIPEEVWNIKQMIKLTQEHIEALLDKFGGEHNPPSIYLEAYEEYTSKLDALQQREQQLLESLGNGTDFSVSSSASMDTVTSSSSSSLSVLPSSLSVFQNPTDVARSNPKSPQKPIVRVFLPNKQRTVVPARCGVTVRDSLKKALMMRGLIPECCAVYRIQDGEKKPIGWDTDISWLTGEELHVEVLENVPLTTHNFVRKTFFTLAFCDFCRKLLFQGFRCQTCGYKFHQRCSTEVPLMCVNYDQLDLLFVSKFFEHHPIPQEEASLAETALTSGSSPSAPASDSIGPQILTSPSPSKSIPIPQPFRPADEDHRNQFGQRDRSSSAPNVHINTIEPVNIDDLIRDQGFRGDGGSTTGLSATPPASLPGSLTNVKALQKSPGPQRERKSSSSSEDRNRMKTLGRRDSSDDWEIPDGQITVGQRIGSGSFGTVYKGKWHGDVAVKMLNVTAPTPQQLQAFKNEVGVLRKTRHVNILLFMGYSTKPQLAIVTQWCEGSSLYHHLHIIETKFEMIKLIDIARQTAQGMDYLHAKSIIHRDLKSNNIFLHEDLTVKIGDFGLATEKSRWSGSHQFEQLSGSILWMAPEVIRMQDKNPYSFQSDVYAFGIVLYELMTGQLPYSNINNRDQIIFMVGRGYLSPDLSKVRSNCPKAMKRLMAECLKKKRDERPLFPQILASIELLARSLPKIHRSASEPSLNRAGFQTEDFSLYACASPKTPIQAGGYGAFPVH

[2] = molecular target: BRAF WT (Homo sapiens, UniProt P15056); test: PanQinase flash plate-based kinase assay
Sequence of BRAF WT (P15056 whole entry): as the sequence (P15056 whole entry V600E) above, with E600V counted along it

[3] = molecular target: T1, ARAF del 347_348 G387D (Homo sapiens, UniProt P10398, DEL347-348/G387D); test: PanQinase flash plate-based kinase assay
T1 sequence (P10398 with tags, fused parts or gaps DEL347-348/G387D): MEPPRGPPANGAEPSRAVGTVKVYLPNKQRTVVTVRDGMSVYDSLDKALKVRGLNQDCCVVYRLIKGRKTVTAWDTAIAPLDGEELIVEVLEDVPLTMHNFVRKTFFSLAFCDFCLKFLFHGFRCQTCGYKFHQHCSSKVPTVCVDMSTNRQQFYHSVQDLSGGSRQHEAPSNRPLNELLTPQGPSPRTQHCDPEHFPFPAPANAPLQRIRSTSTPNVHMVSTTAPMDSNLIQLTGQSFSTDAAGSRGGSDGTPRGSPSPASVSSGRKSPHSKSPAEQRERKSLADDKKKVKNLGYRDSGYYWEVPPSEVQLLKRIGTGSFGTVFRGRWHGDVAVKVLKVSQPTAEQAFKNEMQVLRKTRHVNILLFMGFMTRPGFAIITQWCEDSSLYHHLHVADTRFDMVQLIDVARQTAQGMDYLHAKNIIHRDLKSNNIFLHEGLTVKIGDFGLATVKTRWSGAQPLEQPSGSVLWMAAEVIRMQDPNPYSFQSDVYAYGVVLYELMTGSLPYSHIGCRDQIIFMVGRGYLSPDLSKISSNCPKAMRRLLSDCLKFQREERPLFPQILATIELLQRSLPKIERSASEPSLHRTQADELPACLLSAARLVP

[4] = molecular target: T2, ARAF del 347_348 (Homo sapiens, UniProt P10398, DEL347-348); test: PanQinase flash plate-based kinase assay
T2 sequence (P10398 with tags, fused parts or gaps DEL347-348): T1 sequence (P10398 with tags, fused parts or gaps DEL347-348/G387D) with D385G

[5] = molecular target: T3, ARAF G377R (Homo sapiens, UniProt P10398, G377R); test: PanQinase flash plate-based kinase assay
T3 sequence (P10398 1-606 G377R): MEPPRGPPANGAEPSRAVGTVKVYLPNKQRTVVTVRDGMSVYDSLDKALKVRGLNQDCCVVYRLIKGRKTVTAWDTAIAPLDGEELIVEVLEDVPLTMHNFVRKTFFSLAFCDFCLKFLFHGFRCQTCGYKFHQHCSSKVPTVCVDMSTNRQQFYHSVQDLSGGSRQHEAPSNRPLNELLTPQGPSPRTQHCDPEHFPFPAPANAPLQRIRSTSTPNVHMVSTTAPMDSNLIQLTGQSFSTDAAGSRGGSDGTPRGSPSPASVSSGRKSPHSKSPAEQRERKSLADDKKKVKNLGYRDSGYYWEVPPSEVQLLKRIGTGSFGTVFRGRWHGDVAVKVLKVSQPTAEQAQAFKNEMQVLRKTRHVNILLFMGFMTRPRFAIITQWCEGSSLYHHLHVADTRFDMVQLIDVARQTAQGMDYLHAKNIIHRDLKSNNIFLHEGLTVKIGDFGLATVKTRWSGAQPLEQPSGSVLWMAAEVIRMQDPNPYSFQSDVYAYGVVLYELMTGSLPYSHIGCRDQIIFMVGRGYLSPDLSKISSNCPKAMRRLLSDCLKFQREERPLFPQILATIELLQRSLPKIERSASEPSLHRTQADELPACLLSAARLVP

[6] = molecular target: T4, ARAF WT (Homo sapiens, UniProt P10398); test: PanQinase flash plate-based kinase assay
T4 sequence (P10398 1-606): T3 sequence (P10398 1-606 G377R) with R377G

[7] = molecular target: CRAF WT (Homo sapiens, UniProt P04049, Y340D/Y341D); test: PanQinase flash plate-based kinase assay
Sequence of CRAF WT (P04049 307-648 Y340D/Y341D): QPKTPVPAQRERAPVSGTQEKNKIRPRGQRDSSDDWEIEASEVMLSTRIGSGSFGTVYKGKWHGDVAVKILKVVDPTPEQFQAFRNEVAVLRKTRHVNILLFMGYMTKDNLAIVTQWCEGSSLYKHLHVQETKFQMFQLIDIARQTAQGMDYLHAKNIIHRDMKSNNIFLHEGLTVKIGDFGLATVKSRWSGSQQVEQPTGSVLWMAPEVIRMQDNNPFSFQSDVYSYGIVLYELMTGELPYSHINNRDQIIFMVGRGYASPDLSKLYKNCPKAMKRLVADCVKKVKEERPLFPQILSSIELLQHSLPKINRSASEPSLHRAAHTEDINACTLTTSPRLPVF

[8] = system: RAS (NRAS and KRAS) and RAF (BRAF Class 2/3) mutation driven colorectal cancer, non-small cell lung cancer, melanoma, and ovarian cancer xenografts; test: Tumor growth inhibition in xenograft mice models; assay type: in vivo; settings: 10 mg/kg BID, 30 mg/kg BID, 30 mg/kg QD, 100 mg/kg QD, FIGS. 1A-E
Experimental: Vehicle was administered BID as a control.
The effect of Compound I in tumor growth inhibition was evaluated in xenograft mice models carrying pathogenic RAS (NRAS and KRAS) and RAF (BRAF Class 2/3) mutation driven colorectal cancer, non-small cell lung cancer, melanoma, and ovarian cancer.

[9] = system: metastatic NRASQ61 mutated melanoma; assay type: in vivo, human
Experimental: This is a phase 1 study of Compound I in participants with advanced or metastatic solid tumors harboring alterations in the MAPK pathway. The study comprises 2 parts: dose exploration (Part A) and expansion (Part B).
Compound I (i.e., (S)-5-((3-(4-(4-fluorophenyl)-1H-imidazol-2-yl) chroman-6-yl)oxy)-3,4-dihydro-1,8-naphthyridin-2 (1H)-one) is orally administered to participants BID in a capsule formulation with unit dose strengths of 10 mg or 25 mg, taken approximately 12 hours apart in the morning and in the evening. Specifically, in Part A, Compound I is administered as a single dose on Cycle 1 Day 1, with no doses administered on Days 2 and 3 before proceeding with BID dosing on Day 4 and after.
Tumor response to therapy will be assessed by the investigator using RECIST v1.1. Tumor assessments will be made by CT/MRI/PE at Screening, on Day 1 of Cycle 3 (Day 57), and every 2 cycles (56 days) thereafter until Dayl of Cycle 13, after which tumor assessments will be every 3 cycles (84 days) and at the End of Treatment Visit. Tumor assessments will include all known or suspected disease sites. Imaging must include chest, abdomen, and pelvis CT or MRI scans. Imaging will be performed on the abdomen, chest, pelvis, and the site of the primary tumor if it is located elsewhere.
Dosing regimens: To assess the safety and efficacy of Compound I in the cancer treatment, Compound I was orally administered to participants at 20 mg BID (“bis in die”, or “twice a day”), 30 mg BID, 50 mg BID, 50 mg QD (“quaque die”, “once a day”), 75 mg BID, or 100 mg QD for a period of time. Treatment-related adverse events (TRAE, Grade≤2 and Grade ≥3) were monitored and recorded. The efficacy of Compound I in treating cancer was determined by using radiologic tumor assessment as per RECIST v1.1 (e.g., PET-CT or MRI scans).

[10] = system: Sprague Dawley rats; settings: 0, 10, 20, or 45 mg/kg/day once daily via oral gavage
Experimental: (§1) Compound I was evaluated in GLP-compliant 28-day oral toxicity studies in 2 preclinical species, Sprague Dawley rats and beagle dogs. In the rat 28-day study, Compound I was administered at 0, 10, 20, or 45 mg/kg/day once daily via oral gavage. […] In the dog 28-day study, Compound I was administered at 0, 3.75, 7.5, or 15 mg/kg/day once daily via oral gavage.

[11] = system: beagle dogs; settings: 0, 3.75, 7.5, or 15 mg/kg/day once daily via oral gavage
Experimental: as §1

`Cc1ccc2c(Nc3cccc(Cl)c3F)nccc2c1NC(=O)c1csc2c(N)ncnc12` [Belvarafenib] showed an IC50 [1] of 193 nM, an IC50 [2] of 97.2 nM and an IC50 [3] of 46.5 nM. The IC50 [4] was 60.3 nM, the IC50 [5] was 754 nM and the IC50 [6] was 26 nM. The IC50 [7] was 9.1 nM.
Compound `O=C1CCc2c(Oc3ccc4c(c3)CC(c3ncc(-c5ccc(F)cc5)[nH]3)CO4)ccnc2N1` (stereo not drawn) [Compound I, 5-((3-(4-(4-fluorophenyl)-1H-imidazol-2-yl)chroman-6-yl)oxy)-3,4-dihydro-1,8-naphthyridin-2 (1H)-one] has an IC50 [1] of 40.2 nM, an IC50 [2] of 40.6 nM and an IC50 [3] of 20.4 nM. The IC50 [4] was 68.3 nM, the tumor growth inhibition [8] was “dose-dependent tumor growth inhibition effect” and the IC50 [5] was 142 nM. For the same compound, the “reduction in target lesions” value ([9]; after 2 months, n=1, metastatic NRASQ61 mutated melanoma, 50 mg QD) was 61%, the “reduction in the target lesion” value ([9]; after 4 months (confirmation of PR), n=1, metastatic NRASQ61 mutated melanoma, 50 mg QD) was 69% and the “PET avidity (PET/CT)” value ([9]; n=1, metastatic NRASQ61 mutated melanoma, 50 mg QD, FIG. 3) was “significant resolution of PET avidity”. The “tumor response per RECIST v1.1” value ([9]; participant (n=1), metastatic NRASQ61 mutated melanoma, 50 mg QD oral) was “partial response (PR)”, the “findings in 28-day oral toxicity study” value [10] was “No mortality, and no clinical signs, changes in body weight or food consumption, ophthalmology, clinical pathology or macroscopic findings of toxicological relevance were noted” and the “findings in 28-day oral toxicity study” value [11] was “No mortality, and no clinical signs, changes in body weight or food consumption, ophthalmology, ECG, clinical pathology, macroscopic or microscopic findings of toxicological relevance were noted”. For the same compound, the “predicted human Vss” value was 0.77 L/kg, the “predicted human CL” value (allometrically scaled) was 1.2 mL/min/kg and the IC50 ([6]; average IC50 ARAF WT, PanQinase flash plate assay, kinase dead MEK K97M substrate, 0.1-3 μM ATP) was 15.7 nM and 11.4 nM. For the same compound, the IC50 [7] was 2.3 nM.
`Cc1ccc(NC(=O)c2ccnc(C(F)(F)F)c2)cc1-c1cc(OCCO)nc(N2CCOCC2)c1` [Naporafenib] showed an IC50 [1] of 191 nM, an IC50 [2] of 141 nM and an IC50 [3] of 67.2 nM. For the same compound, the IC50 [4] was 154 nM, the IC50 [5] was 621 nM and the IC50 [6] was 63.5 nM. It also gave an IC50 [7] of 9.7 nM.
